Source: ChEMBL document CHEMBL4346710, “Discovery of 7H-pyrrolo[2,3-d]pyrimidine derivatives as selective covalent irreversible inhibitors of interleukin-2-inducible T-cell kinase (Itk)” (Eur J Med Chem, 2019)
The source made the active and inactive calls. The rule behind the calls is not given here.

Tests used:
[1] = target: Tyrosine-protein kinase ABL1 (Homo sapiens) (UniProt P00519); experiment: Inhibition of recombinant full length human His-tagged ABL1 cytoplasmic domain expressed in baculovirus expression system assessed as enzyme residual activity at 0.4 uM using fluorophore-labeled tyrosine-2 peptide as substrate incubated for 60 mins by Z'-LYTE assay relative to control
[2] = target: Serine/threonine-protein kinase Nek1 (Homo sapiens) (UniProt Q96PY6); experiment: (§1) Inhibition of recombinant human GST-tagged NEK1 catalytic domain (1 to 505 amino acids) expressed in baculovirus expression system assessed as enzyme residual activity at 0.4 uM using fluorophore-labeled serine/threonine-07 peptide as substrate incubated for 60 mins by Z'-LYTE assay relative to control
Serine/threonine-protein kinase Nek1 (Homo sapiens), sequence (Q96PY6 whole entry, the tested form may be a part): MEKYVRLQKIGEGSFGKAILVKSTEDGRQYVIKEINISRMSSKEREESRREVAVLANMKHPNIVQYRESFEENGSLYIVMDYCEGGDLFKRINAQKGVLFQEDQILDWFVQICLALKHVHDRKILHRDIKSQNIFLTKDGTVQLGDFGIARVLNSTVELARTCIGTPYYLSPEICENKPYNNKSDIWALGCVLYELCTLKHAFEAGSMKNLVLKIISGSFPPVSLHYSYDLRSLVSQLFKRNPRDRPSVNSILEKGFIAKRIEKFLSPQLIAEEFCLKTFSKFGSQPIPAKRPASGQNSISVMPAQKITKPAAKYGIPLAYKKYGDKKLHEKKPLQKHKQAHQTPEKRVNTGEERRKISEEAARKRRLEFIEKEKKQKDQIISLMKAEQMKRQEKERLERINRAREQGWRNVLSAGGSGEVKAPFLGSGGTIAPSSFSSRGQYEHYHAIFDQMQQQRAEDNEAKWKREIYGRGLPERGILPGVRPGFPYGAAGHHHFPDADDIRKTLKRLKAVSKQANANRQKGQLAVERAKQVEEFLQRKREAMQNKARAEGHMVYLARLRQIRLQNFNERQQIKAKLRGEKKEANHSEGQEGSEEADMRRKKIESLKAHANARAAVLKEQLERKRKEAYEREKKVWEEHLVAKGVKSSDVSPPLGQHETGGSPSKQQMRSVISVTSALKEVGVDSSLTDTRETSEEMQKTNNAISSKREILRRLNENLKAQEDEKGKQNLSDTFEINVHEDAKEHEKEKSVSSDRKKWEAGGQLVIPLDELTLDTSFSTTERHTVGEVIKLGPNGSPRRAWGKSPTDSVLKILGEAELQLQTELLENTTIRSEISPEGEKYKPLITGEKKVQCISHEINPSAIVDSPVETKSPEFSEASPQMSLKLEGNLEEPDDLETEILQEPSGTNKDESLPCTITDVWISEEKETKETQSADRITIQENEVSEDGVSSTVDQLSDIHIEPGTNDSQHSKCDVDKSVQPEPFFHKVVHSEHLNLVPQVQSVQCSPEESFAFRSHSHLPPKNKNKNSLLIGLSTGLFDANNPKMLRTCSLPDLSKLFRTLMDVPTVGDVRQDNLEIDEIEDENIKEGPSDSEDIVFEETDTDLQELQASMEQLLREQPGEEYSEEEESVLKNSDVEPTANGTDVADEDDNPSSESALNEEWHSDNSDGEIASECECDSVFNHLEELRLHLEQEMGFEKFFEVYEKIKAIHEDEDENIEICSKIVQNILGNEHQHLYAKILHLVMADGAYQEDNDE

CCRF-CEM = experiment: Induction of apoptosis in human CCRF-CEM cells assessed as downregulation of PARP at 1 to 5 uM incubated for 24 hrs by Western blot analysis; type: functional, cell-based
[3] = target: Tyrosine-protein kinase Blk (Homo sapiens, UniProt P51451); experiment: Inhibition of recombinant full-length human His-tagged BLK cytoplasmic domain expressed in baculovirus expression system using fluorophore-labeled tyrosine-1 peptide as substrate incubated for 60 mins by Z'-LYTE assay
Tyrosine-protein kinase Blk, sequence (P51451 whole entry, the tested form may be a part): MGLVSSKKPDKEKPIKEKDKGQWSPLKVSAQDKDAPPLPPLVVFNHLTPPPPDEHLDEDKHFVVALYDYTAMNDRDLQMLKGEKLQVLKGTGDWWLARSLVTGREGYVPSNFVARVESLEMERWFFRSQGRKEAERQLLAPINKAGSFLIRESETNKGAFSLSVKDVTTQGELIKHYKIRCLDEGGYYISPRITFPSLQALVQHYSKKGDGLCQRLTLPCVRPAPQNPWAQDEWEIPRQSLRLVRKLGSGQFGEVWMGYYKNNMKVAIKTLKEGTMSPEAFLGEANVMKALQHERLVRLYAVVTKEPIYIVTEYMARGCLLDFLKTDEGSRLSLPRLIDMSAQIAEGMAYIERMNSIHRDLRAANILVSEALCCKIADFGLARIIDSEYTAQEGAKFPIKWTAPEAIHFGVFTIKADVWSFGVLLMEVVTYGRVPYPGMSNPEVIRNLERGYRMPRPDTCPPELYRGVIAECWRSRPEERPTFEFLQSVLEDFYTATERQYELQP

[4] = target: Protein kinase C theta type (Homo sapiens) (UniProt Q04759); experiment: Inhibition of recombinant full length human His-tagged PRKCQ expressed in baculovirus expression system assessed as enzyme residual activity at 0.4 uM using fluorophore-labeled serine/threonine-7 peptide as substrate incubated for 60 mins by Z'-LYTE assay relative to control
Protein kinase C theta type (Homo sapiens), sequence (Q04759 whole entry, looked up): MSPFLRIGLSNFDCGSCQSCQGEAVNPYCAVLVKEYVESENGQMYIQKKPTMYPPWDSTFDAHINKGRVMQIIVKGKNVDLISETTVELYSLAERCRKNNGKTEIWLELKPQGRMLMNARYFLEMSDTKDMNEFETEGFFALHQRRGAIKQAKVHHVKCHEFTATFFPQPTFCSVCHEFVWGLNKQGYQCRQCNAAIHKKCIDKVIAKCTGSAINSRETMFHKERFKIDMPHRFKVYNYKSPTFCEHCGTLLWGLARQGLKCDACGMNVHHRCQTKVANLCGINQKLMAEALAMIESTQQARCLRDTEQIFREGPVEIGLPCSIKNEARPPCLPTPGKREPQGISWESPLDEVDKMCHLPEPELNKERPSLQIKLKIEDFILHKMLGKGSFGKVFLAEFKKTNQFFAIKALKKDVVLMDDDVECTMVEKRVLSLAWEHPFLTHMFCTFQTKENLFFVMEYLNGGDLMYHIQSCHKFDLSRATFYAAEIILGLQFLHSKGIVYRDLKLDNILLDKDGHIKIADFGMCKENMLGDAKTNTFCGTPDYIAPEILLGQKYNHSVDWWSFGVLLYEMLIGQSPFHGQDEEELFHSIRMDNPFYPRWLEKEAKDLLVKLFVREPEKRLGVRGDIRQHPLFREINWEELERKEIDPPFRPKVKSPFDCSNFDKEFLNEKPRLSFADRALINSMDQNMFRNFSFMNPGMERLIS

[5] = target: T1, Tyrosine-protein kinase ITK/TSK (Homo sapiens) (UniProt Q08881); experiment: Inhibition of ITK in human Jurkat cells assessed as reduction in anti-CD3/CD28-stimulated PLCgamma1 phosphorylation at 0.1 to 10000 nM preincubated for 2 hrs followed by anti-CD3/CD28 beads addition and measured after 30 min by Western blot analysis; type: cell-based
T1 sequence (whole entry): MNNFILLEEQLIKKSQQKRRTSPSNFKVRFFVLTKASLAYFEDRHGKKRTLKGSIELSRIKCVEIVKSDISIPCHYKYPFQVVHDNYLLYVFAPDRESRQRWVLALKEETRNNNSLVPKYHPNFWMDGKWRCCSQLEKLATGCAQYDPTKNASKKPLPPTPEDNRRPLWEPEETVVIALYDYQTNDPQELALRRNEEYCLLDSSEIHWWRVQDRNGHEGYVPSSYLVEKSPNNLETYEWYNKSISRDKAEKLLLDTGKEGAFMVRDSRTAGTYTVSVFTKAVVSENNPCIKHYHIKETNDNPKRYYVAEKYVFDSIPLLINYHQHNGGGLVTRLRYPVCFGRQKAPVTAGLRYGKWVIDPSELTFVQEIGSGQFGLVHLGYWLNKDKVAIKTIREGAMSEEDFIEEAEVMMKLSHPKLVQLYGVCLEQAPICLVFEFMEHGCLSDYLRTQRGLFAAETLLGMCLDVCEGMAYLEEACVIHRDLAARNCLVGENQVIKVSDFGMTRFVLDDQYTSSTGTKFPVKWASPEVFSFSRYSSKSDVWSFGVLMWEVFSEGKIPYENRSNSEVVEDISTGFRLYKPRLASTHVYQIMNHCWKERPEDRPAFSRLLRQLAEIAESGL

HEK-293T = experiment: Growth inhibition of HEK293T cells incubated for 72 hrs by CellTiter-Glo luminescent cell viability assay; type: functional; settings: Homo sapiens
Jurkat = experiment: Induction of apoptosis in human Jurkat cells assessed as downregulation of caspase3 at 1 to 20 uM incubated for 24 hrs by Western blot analysis; type: functional, cell-based
[6] = target: Epidermal growth factor receptor (Homo sapiens, UniProt P00533); experiment: Inhibition of recombinant human N-terminal GST-tagged EGFR kinase domain (696 to end residues) expressed in baculovirus infected Sf21 insect cells using STK as substrate by HTRF assay
[7] = target: Rho-associated protein kinase 2 (Homo sapiens) (UniProt O75116); experiment: as §1, with “human N-terminal” for “human”, “ROCK2” for “NEK1”, “552 residues)” for “505 amino acids)”, “serine/threonine-13” for “serine/threonine-07”
Rho-associated protein kinase 2 (Homo sapiens), sequence (O75116 whole entry, looked up, the tested form may be a part): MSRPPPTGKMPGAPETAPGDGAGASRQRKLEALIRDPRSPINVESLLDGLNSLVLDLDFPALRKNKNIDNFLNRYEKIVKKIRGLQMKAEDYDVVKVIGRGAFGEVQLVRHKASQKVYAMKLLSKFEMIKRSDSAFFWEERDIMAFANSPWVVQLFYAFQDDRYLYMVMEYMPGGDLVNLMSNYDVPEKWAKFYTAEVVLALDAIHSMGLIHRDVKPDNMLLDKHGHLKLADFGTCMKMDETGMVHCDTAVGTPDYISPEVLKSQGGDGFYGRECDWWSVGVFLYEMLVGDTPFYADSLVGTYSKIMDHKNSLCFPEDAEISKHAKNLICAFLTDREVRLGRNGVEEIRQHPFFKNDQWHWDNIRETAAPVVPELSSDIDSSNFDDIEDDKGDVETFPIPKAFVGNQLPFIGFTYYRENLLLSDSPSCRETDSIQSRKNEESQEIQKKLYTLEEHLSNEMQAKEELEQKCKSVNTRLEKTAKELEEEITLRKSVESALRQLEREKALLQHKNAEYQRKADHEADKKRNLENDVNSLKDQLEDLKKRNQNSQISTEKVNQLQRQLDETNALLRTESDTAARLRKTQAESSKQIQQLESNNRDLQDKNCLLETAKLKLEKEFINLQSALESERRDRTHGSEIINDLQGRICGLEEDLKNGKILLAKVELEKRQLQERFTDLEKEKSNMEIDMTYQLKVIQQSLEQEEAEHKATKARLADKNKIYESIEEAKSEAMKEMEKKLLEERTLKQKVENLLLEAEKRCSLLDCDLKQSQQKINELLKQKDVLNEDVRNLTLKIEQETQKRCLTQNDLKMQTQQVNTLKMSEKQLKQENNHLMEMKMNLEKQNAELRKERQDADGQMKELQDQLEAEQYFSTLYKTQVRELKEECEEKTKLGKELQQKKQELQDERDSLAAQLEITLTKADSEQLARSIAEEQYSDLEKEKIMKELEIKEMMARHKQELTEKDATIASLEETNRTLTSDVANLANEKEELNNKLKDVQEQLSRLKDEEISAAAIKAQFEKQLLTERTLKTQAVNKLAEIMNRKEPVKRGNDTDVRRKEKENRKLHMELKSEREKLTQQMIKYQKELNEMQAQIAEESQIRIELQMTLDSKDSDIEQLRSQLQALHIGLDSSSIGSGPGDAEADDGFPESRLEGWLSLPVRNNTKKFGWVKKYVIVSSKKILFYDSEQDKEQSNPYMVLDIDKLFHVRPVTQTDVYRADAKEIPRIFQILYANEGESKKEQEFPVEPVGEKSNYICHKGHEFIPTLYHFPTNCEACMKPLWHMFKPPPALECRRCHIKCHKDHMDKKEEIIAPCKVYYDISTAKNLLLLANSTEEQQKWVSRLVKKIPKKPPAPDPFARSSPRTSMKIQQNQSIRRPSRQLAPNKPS

Homo sapiens = organism: Homo sapiens; experiment: Selectivity ratio of IC50 for recombinant human N-terminal GST-tagged EGFR kinase domain (696 to end residues) expressed in baculovirus infected Sf21 insect cells to IC50 for recombinant human N-terminal His6-tagged ITK (352 to 617 residues) expressed in baculovirus infected Sf21 insect cells
[8] = target: Ephrin type-A receptor 2 (Homo sapiens) (UniProt P29317); experiment: Inhibition of recombinant human GST-tagged EPHA2 cytoplasmic domain (560 to 976 residues) expressed in baculovirus expression system assessed as enzyme residual activity at 0.4 uM using tyrosine-01 peptide as substrate incubated for 60 mins by Z'-Lyte assay relative to control
Ephrin type-A receptor 2 (Homo sapiens), sequence (P29317 whole entry, the tested form may be a part): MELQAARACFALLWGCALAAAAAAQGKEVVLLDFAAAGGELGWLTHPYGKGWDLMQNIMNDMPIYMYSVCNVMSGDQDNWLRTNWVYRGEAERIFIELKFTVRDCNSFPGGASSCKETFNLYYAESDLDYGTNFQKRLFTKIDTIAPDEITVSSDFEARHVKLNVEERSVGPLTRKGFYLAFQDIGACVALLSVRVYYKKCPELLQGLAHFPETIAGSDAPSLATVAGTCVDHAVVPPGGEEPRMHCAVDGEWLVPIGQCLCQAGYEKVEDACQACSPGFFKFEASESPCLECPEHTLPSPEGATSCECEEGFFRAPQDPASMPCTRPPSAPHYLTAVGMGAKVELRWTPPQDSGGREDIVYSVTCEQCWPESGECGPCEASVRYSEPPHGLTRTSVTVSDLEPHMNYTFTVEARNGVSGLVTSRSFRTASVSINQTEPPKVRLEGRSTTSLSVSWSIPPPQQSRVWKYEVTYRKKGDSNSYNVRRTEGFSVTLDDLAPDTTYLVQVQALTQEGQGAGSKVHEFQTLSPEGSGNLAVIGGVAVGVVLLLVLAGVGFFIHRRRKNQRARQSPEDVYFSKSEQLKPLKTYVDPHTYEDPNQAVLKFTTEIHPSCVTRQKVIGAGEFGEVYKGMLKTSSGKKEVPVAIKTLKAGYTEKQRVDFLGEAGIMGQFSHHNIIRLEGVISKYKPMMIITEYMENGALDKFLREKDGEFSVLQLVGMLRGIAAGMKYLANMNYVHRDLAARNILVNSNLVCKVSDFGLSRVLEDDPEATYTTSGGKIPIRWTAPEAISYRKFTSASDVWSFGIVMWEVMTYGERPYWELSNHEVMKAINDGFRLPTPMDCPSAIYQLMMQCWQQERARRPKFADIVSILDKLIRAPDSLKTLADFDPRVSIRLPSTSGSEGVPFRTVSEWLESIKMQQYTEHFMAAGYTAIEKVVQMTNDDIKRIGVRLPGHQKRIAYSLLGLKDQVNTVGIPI

H9 = experiment: Growth inhibition of human H9 cells incubated for 72 hrs by CellTiter-Glo luminescent cell viability assay; type: functional; settings: H9, 72 h

- Activity [1]: 11.7%
- Activity [2]: 89%
- IC50 [3]: 198 nM
- Activity [4]: 89%
- inhibition [5]: Active
- IC50 [6]: 1260 nM
- Activity [7]: 96.3%
- Activity [8]: 95%
SMILES: C=CC(=O)N1CCC(Oc2nc(Nc3ccc(N4CCOCC4)cc3)nc3[nH]cc(-c4cncc(NC)n4)c23)CC1
- Activity (CCRF-CEM): Active
- GI50 (HEK-293T): 544 nM
- Activity (Jurkat): Active
- Ratio IC50 (Homo sapiens): 250
- GI50 (H9): 232 nM
